Measurements taken from publication PMC3508294 (Journal of medicinal chemistry, 2012).

What was measured:
CARM1/PRMT4 [1] = molecular target: T1, CARM1/PRMT4 (Mus musculus, UniProt Q9WVG6); assay: CARM1 in vitro methylation assay, histone H3 as substrate; assay type: biochemical; conditions: 50 µM
T1 sequence (Q9WVG6 1-608): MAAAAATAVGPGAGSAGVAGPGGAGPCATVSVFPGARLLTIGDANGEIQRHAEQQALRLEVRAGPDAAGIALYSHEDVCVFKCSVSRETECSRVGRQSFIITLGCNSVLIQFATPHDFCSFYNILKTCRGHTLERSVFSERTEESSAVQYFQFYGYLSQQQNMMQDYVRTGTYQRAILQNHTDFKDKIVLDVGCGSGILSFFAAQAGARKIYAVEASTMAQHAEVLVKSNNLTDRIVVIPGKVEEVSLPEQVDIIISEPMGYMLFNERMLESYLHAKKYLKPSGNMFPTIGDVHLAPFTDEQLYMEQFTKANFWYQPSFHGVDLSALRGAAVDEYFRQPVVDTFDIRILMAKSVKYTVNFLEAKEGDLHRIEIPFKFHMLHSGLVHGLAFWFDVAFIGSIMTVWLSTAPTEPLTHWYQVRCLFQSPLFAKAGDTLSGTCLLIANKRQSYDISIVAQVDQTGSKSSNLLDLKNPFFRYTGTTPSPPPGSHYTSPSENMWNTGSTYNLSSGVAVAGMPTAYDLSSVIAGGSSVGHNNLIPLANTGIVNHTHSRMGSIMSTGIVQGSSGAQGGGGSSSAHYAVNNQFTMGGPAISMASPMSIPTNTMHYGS

CARM1/PRMT4 [2] = molecular target: T1, CARM1/PRMT4; assay: CARM1 in vitro methylation assay, PABP1 as substrate; assay type: biochemical; conditions: 3, 6, 12, 25, 50 and 100 µM
calf thymus histone H3 = assay: SPR binding to immobilized histone H3; conditions: compounds injected at 50–10000 nM
PABP1(437–488) = PABP1(437–488) (Homo sapiens, UniProt P11940); assay: SPR binding to immobilized PABP1; conditions: compounds injected at 50–10000 nM
CARM1 = molecular target: T2, CARM1 (Mus musculus, UniProt Q9WVG6); assay: SPR binding to immobilized full length GST-tagged CARM1; conditions: for Effect on affinity of substrate (H3 or PABP1) for CARM1/SAH complex: 4 µM compound, 200 µM SAH; for Interaction with immobilized CARM1 (in words): 50–10000 nM, in the presence and in absence of SAH
T2 sequence (Q9WVG6 1-608): T1 sequence (Q9WVG6 1-608)

[3] = molecular target: human recombinant PRMT1 (hPRMT1) (Homo sapiens, UniProt Q99873); assay: PRMT1 in vitro inhibition assay, Npl3 as substrate; conditions: fixed doses of 10 µM and 50 µM
[4] = tested on: CARM1 (fPABP1 methylation) in HEK293 cells; assay: Cellular methylation assay, Tet-inducible fPABP1 in HEK293 cells; assay type: cell-based, human; conditions: HEK293, Tet-induced fPABP1; 50 µM compound; 24 h; anti-methyl-PABP1 immunoblot
[5] = molecular target: T3, full length GST-tagged CARM1 (UniProt Q9WVG6 1-608); assay: SPR
T3 sequence (looked up): T1 sequence (Q9WVG6 1-608)

Chain of human recombinant PRMT1 (hPRMT1) (Q99873 whole entry): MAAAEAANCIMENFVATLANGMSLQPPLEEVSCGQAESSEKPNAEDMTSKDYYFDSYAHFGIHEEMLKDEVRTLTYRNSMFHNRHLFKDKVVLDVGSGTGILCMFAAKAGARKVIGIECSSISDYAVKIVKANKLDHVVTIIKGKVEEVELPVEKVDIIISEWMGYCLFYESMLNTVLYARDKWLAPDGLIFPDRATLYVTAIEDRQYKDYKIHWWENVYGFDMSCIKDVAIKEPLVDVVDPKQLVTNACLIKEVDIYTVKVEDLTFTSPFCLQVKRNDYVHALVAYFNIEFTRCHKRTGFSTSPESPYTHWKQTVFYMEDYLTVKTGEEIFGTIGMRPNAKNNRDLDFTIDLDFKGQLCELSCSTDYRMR

Molecule: CCOC(=O)c1cc2cc(NC(=O)CNC(=O)Nc3ccc([N+](=O)[O-])cc3)ccc2[nH]1 [1k, ethyl 5-(2-(3-(4-nitrophenyl)ureido)acetamido)-1H-indole-2-carboxylate]
- Effect on CARM1-catalyzed H3 methylation (in words) (CARM1/PRMT4 [1]): marked activation
- Effect on CARM1 enzyme activity, dose dependence (CARM1/PRMT4 [2]): marked and dose-dependent increase
- Interaction with immobilized histone H3 (in words) (calf thymus histone H3): no interaction
- Interaction with immobilized PABP1(437–488) (in words) (PABP1(437–488)): no interaction
- Effect on affinity of substrate (H3 or PABP1) for CARM1/SAH complex (CARM1): affects the affinity
- Interaction with immobilized CARM1 (in words) (CARM1): no interaction
- Inhibition of PRMT1 [3]: scarcely active

Molecule: CCOC(=O)c1cc2cc(NC(=O)CNC(=O)Nc3ccc(C)cc3)ccc2[nH]1 [3c, ethyl 5-(2-(3-(p-tolyl)ureido)acetamido)-1H-indole-2-carboxylate]
- Interaction with immobilized histone H3 (in words) (calf thymus histone H3): no interaction
- Interaction with immobilized PABP1(437–488) (in words) (PABP1(437–488)): no interaction
- Effect on affinity of substrate (H3 or PABP1) for CARM1/SAH complex (CARM1): significantly affect the affinity
- Interaction with immobilized CARM1 (in words) (CARM1): no interaction
- Methylation of fPABP1 in cells [4]: strongly increase the methylation

Molecule: CCOC(=O)c1cc2cc(NC(=O)CNC(=O)Nc3ccc(C#N)cc3)ccc2[nH]1 [3g, ethyl 5-(2-(3-(4-cyanophenyl)ureido)acetamido)-1H-indole-2-carboxylate]
- Interaction with immobilized histone H3 (in words) (calf thymus histone H3): no interaction
- Interaction with immobilized PABP1(437–488) (in words) (PABP1(437–488)): no interaction
- Effect on affinity of substrate (H3 or PABP1) for CARM1/SAH complex (CARM1): affects the affinity
- Interaction with immobilized CARM1 (in words) (CARM1): no interaction
- Methylation of fPABP1 in cells [4]: strongly increase the methylation

Molecule: COC(=O)c1c[nH]c2ccc(NC(=O)CNC(=O)Nc3ccc(OC)cc3)cc12 [4e, methyl 5-(2-(3-(4-methoxyphenyl)ureido)acetamido)-1H-indole-3-carboxylate]
- Interaction with immobilized histone H3 (in words) (calf thymus histone H3): no interaction
- Interaction with immobilized PABP1(437–488) (in words) (PABP1(437–488)): no interaction
- Effect on affinity of substrate (H3 or PABP1) for CARM1/SAH complex (CARM1): significantly affect the affinity
- Interaction with immobilized CARM1 (in words) (CARM1): no interaction

Molecule: O=C(Nc1ccc2c(O)cc(S(=O)(=O)O)cc2c1)Nc1ccc2c(O)cc(S(=O)(=O)O)cc2c1 [AMI-1, reference compound]
- Interaction with immobilized PABP1(437–488) (in words) (PABP1(437–488)): barely perceptible

Molecule: O=c1oc2c(O)c(O)cc3c(=O)oc4c(O)c(O)cc1c4c23 [ellagic acid, reference compound]
- Interaction with immobilized PABP1(437–488) (in words) (PABP1(437–488)): barely perceptible

B1: PABP1(437–488) (domain or fragment, human, UniProt P11940 437-488, looked up)
chain: WTAQGARPHPFQNMPGAIRPAAPRPPFSTMRPASSQVPRVMSTQRVANTSTQ
- Kd [5]: 158 nM
